# Columns and labels:
# Experiment in all cases: cell viability (% survival relative to DMSO control, bortezomib = 0%); higher = less cytotoxic
# Conditions in all cases: 72 h
# LAMA-84 = tested on: LAMA-84
# Procedure, shortened: (§1)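 Fifteen myeloid leukaemia cell lines were exposed to compounds at 1, 10, 100, 1000 or 10000 nM in 384-well plates for 72 h at 37 °C and 5% CO2. Viability was read by CellTiter-Glo luminescence and normalised, with vehicle as 100% and a 10 µM positive control as 0%. Values are percent survival averaged over duplicates.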
# Mono-Mac-6 = tested on: Mono-Mac-6
# Procedure, shortened: as §1
# NOMO-1 = tested on: NOMO-1
# Procedure, shortened: as §1
SMILES,cell viability (LAMA-84; 1 nM) [%],cell viability (LAMA-84; 10 nM) [%],cell viability (LAMA-84; 100 nM) [%],cell viability (LAMA-84; 1000 nM) [%],cell viability (LAMA-84; 10000 nM) [%],cell viability (Mono-Mac-6; 1 nM) [%],cell viability (Mono-Mac-6; 10 nM) [%],cell viability (Mono-Mac-6; 100 nM) [%],cell viability (Mono-Mac-6; 1000 nM) [%],cell viability (Mono-Mac-6; 10000 nM) [%],cell viability (NOMO-1; 1 nM) [%],cell viability (NOMO-1; 10 nM) [%],cell viability (NOMO-1; 100 nM) [%],cell viability (NOMO-1; 1000 nM) [%],cell viability (NOMO-1; 10000 nM) [%]
C[C@]12O[C@H](C[C@]1(O)CO)n1c3ccccc3c3c4c(c5c6ccccc6n2c5c31)CNC4=O [Lestaurtinib],99.6,94.4,34.2,25,0.148,83.4,54.1,4.06,0.62,0.201,100,92.3,68.1,9.73,0.0124
O=c1c2ccccc2[se]n1-c1ccccc1 [Ebselen],93.3,97.1,95.5,92.1,101,99.1,93.8,103,98.1,84.6,93.7,103,97.3,94.3,102
Oc1cc(Cl)ccc1Oc1ccc(Cl)cc1Cl [Triclosan],102,91.1,103,108,66.5,94.5,98.3,101,116,97.2,102,89,99.3,104,105
Clc1ccc(COC(Cn2ccnc2)c2ccc(Cl)cc2Cl)cc1 (stereo not given) [Econazole],103,95.5,91.8,92,58.1,102,92.1,86.7,78.4,58.8,105,84.8,98.2,93.2,89.1
CCN(CC)CCN(Cc1ccc(-c2ccc(C(F)(F)F)cc2)cc1)C(=O)Cn1c(SCc2ccc(F)cc2)nc(=O)c2c1CCC2 [Darapladib],101,83.5,99.7,80.6,-0.44,97,90.9,101,93.3,-0.318,98.6,98.8,97,93.8,-0.418
Cc1noc2c1-c1ccccc1C(c1ccc(Cl)cc1)=N[C@H]2CC(N)=O [CPI-0610],107,92.3,98.4,67.2,33.6,99.7,89.3,65.7,17,15.9,102,96.3,79,33.6,11.7
COc1c(C)c2c(c(O)c1C/C=C(\C)CCC(=O)O)C(=O)OC2 [Mycophenolic acid],106,93.2,108,46.8,16.9,104,99.7,108,80,16.4,103,96.6,106,89.2,24.7
CN(C)c1nc(O)c2[nH]cnc2n1 [2-Dimethylamino-6-hydroxypurine],101,104,97.7,99.3,103,97.2,100,86.9,99.4,113,101,95.9,108,102,105
O=C1Nc2ccccc2/C1=C\NCCc1ccc(O)c(O)c1 [AC1NZZMF],107,108,102,101,107,105,102,102,96.9,74.4,105,111,98,113,99.9
CCCc1nn(C)c2c(O)nc(-c3cc(S(=O)(=O)N4CCN(C)CC4)ccc3OCC)nc12 [Sildenafil],91.3,98.8,92.1,95,103,87.9,110,100,110,105,86.9,104,93.2,96.8,94.9
CCOc1ccc(Cc2cc([C@@H]3O[C@H](CO)[C@@H](O)[C@H](O)[C@H]3O)ccc2Cl)cc1 [Dapagliflozin],98.1,111,89.7,97.7,90.5,91.5,95.1,87.5,91.7,88.8,95.2,101,88.1,104,97
CC(Cc1ccc(O)c(O)c1)C(C)Cc1ccc(O)c(O)c1 (stereo not given) [Masoprocol],95.8,95.7,106,95.5,94,86.6,109,102,84.2,22.8,97,104,101,111,56.2
O=P(O)(O)C(O)(Cn1ccnc1)P(=O)(O)O [Zoledronic acid],99.5,104,100,98.2,99.2,96.7,104,91.1,91,96.7,98.8,101,95.6,103,94.6
Cc1ccc(S(=O)(=O)NC2c3ccccc3Oc3ccccc32)cc1 [AH-7614],93.7,98.8,101,95.5,105,101,95.7,111,94.9,101,102,102,104,97.1,103
O=C(O)C(S)=Cc1c[nH]c2ccc(F)cc12,96.9,98.2,92.6,102,102,104,94.7,93.5,74.2,74.1,103,97.9,107,116,94.8
NC(=O)c1ncn([C@@H]2O[C@H](CO)[C@@H](O)[C@H]2O)n1 [Ribavirin],84.9,98.2,101,110,89.8,92.1,103,96.4,101,112,99,102,103,106,103
C[C@]12CC[C@H](O)CC1=CC[C@@H]1[C@@H]2CC[C@]2(C)C(c3cccnc3)=CC[C@@H]12 [Abiraterone],105,106,94.1,102,108,97.7,101,85.2,96.1,108,106,104,97.6,112,108
C[C@H]1O[C@@H](O[C@H]2[C@@H](O)C[C@H](O[C@H]3[C@@H](O)C[C@H](O[C@H]4CC[C@@]5(C)[C@H](CC[C@@H]6[C@@H]5C[C@@H](O)[C@]5(C)[C@@H](C7=CC(=O)OC7)CC[C@]65O)C4)O[C@@H]3C)O[C@@H]2C)C[C@H](O)[C@@H]1O [Digoxin],92.3,115,20.6,2.17,2.06,94.6,100,13,-0.503,-0.351,97.9,105,60.3,-0.211,-0.0253

# From the supplement of paper PMC8671470
